Experimental data reported in US9790252B2, “2-fluorinated riboses and arabinoses and methods of use and synthesis” (CORNELL UNIVERSITY, priority 2009, dated 2017).

How the values were obtained:
Type in all cases: biochemical
SirT1 = target: T1, SirT1 (Homo sapiens, UniProt Q96EB6); assay: SirT1 activity assay (HPLC of 2′- and 3′-AADPR); conditions: 200 μM NAD+, 100 μM JB12 peptide; for SirT1 Ki / Ki: pH 7.5, 30 mins at 37° C.; for SirT1 inhibition (in words): pH 7.5
T1 sequence (Q96EB6 1-747): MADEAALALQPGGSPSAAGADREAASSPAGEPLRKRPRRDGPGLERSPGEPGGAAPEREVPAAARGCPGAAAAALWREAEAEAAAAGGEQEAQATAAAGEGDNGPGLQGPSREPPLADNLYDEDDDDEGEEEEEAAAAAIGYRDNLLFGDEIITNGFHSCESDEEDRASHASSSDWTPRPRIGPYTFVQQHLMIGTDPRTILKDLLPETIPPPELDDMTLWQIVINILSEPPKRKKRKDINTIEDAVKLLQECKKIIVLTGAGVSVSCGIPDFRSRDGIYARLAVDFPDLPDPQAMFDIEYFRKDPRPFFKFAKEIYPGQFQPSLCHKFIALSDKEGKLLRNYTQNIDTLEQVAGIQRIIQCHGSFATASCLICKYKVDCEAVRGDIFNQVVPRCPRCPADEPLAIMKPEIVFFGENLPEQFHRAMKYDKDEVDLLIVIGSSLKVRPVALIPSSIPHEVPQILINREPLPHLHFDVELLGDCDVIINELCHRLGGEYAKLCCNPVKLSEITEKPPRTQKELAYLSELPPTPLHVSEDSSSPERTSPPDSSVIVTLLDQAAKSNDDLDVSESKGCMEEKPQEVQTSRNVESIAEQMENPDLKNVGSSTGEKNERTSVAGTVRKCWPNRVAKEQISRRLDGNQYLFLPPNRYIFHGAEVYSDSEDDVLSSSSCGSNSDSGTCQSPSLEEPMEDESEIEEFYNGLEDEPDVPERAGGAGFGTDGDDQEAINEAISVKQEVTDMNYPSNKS
Experimental: (§1) Reactions containing 200 μM NAD^+, 100 μM JB12 peptide, and 100 mM phosphate buffer at pH 7.5, with varying concentrations of 2′-deoxy-2′-fluoro-nucleosides or nucleotides were initiated by addition of SirT1 enzyme to a concentration of 12.9 μM. Reactions were incubated for 30 mins at 37° C. and quenched by addition of trifluoroacetic acid to pH 2. After centrifugation to remove precipitates, reactions were injected on HPLC for activity analysis. Production of 2′- and 3′-AADPR were analyzed at 260 nm.
as §1, with “SirT1 Activity Assay: Reactions containing” for “Reactions containing”, “concentrations of 2′-deoxy-2′-chloro-nucleosides were initiated” for “concentrations of 2′-deoxy-2′-fluoro-nucleosides or nucleotides were initiated”

SirT3 = target: T2, SirT3 (Homo sapiens, UniProt Q9NTG7); assay: SirT3 activity assay (HPLC of 2′- and 3′-AADPR); conditions: 800 μM NAD+, 500 μM H3 peptide, pH 7.5, 2 hours at 37° C.
T2 sequence (Q9NTG7 1-399): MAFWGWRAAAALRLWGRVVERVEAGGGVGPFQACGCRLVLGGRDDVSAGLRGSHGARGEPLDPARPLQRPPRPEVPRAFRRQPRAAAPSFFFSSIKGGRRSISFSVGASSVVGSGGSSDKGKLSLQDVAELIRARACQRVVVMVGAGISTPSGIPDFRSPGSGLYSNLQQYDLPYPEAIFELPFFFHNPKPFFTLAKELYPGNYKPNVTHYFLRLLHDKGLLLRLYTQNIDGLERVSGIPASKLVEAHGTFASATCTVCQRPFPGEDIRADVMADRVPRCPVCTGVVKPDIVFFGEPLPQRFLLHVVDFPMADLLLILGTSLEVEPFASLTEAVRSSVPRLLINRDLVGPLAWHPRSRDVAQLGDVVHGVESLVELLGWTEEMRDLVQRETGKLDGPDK
Experimental: as §1, with “containing 800” for “containing 200”, “NAD^+, 500” for “NAD^+, 100”, “μM H3” for “μM JB12”, “of SirT3” for “of SirT1”, “of 13.9” for “of 12.9”, “for 2 hours” for “for 30 mins”
SirT3 Activity Assay: Reactions containing 800 μM NAD^+, 500 μM H3 peptide, and 100 mM phosphate buffer at pH 7.5, with varying concentrations of 2′-deoxy-2′-chloro-nucleosides were initiated by addition of SirT3 enzyme to a concentration of 13.9 μM. Reactions were incubated for 2 hours at 37° C. and quenched by addition of trifluoroacetic acid to pH 2. After centrifugation to remove precipitates, reactions were injected on HPLC for activity analysis. Production of 2′- and 3′-AADPR were analyzed at 260 nm.

CD38 = target: T3, CD38 (Homo sapiens, UniProt P28907); assay: CD38 activity assay (NGD+ turnover, 295 nm absorbance)
T3 sequence (P28907 1-300): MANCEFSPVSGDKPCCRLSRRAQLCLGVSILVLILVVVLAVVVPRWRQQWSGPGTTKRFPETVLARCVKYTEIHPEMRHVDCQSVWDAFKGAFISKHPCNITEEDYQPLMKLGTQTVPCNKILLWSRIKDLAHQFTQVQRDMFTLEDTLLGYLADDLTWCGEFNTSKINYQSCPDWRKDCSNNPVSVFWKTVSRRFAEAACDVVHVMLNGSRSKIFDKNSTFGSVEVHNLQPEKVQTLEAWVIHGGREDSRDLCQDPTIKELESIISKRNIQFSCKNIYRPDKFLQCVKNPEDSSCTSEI
Experimental: (§2) CD38 (500 nM) in 100 mM phosphate buffer at pH 7.5 was incubated with various concentrations of 2′-deoxy-2′-fluoro-nucleosides and nucleotides for 30 mins at room temperature. 35 μL of the enzyme inhibitor solution was added to a cuvette containing 1 mL of 100 mM phosphate buffer at pH 7.5, containing 200 μM NGD^+. Reaction progress upon initiation by enzyme addition was monitored by 295 nm absorbance.
as §2, with “CD38 Activity Assay: CD38” for “CD38”, “2′-deoxy-2′-chloro-nucleosides were” for “2′-deoxy-2′-fluoro-nucleosides and nucleotides”

| SMILES | Ki (SirT3) | Ki (SirT1) | other results |
| --- | --- | --- | --- |
| NC(=O)c1ccc[n+]([C@@H]2O[C@H](CO)C(O)C2F)c1 (stereo partly shown) [ara-F-NR, 1-(2′-deoxy-2′-fluoro-arabinofuranosyl)-nicotinamide] | 623 µM | – | SirT1 Ki (SirT1): Ki = high mM |
| NC(=O)c1ccc[n+]([C@@H]2O[C@H](COP(=O)([O-])O)C(O)C2(F)F)c1 (stereo partly shown) [gem-diF-NMN, 2′-deoxy-2′,2′-difluoro-ribo-nicotinamide mononucleotide] | 128 µM | 18 µM | CD38 inhibition (in words) (CD38; at 300 μM): inhibited at 300 μM |
| NC(=O)c1ccc[n+]([C@@H]2O[C@H](CO)[C@@H](O)C2(F)F)c1 [gem-diF-NR, 1-(2′-deoxy-2′,2′-difluoro-ribofuranosyl)-nicotinamide] | – | – | SirT1 inhibition (in words) (SirT1): no inhibition; SirT3 Ki (SirT3): Ki = high mM |
| NC(=O)c1ccc[n+]([C@@H]2O[C@H](COP(=O)([O-])O)C(O)C2F)c1 (stereo partly shown) [ribo-F-NMN, 2′-deoxy-2′-fluoro-ribo-nicotinamide mononucleotide] | 106 µM | – | SirT1 inhibition (in words) (SirT1): no inhibition |
| NC(=O)c1ccc[n+]([C@@H]2O[C@H](CO)C(O)[C@@H]2F)c1 (stereo partly drawn) [ribo-F-NR, 1-(2-deoxy-2-fluoro-D-ribofuranosyl)-nicotinamide] | 250 µM | 200 µM | – |
| NC(=O)c1ccc[n+]([C@@H]2O[C@H](CO)C(O)C2Cl)c1 (stereo partly drawn) [β-ara-Cl-NR, 1-(2′-deoxy-2′-chloro-arabinofuranosyl)-nicotinamide] | 546 µM | – | SirT1 Ki (SirT1): Ki = high mM |
| NC(=O)c1ccc[n+]([C@@H]2O[C@H](CO)C(O)C2(Cl)Cl)c1 (stereo partly drawn) [β-gem-diCl-NR, 1-(2′-deoxy-2′,2′-dichloro-ribofuranosyl)-nicotinamide] | 123 µM | 780 µM | inhibition at 500 µM (CD38; at 500 μM, read-out: CD38 % inhibited): 50% |
